Laboratory results taken from PMC11404848, “Stenotrophomonas maltophilia uses a c-di-GMP module to sense the mammalian body temperature during infection” (PLOS Pathogens, 2024).

Biological target: T1, BtsD^Δ(SP-GGDEF)
T1 construct: N-terminal region; signal peptide (1-42) and GGDEF domain (836-1008) deleted; borders derived from printed deletions; expressed in E. coli BL21(DE3), His6 tag kept or GST tag cut
Test: MicroScale Thermophoresis
Assay type: binding, Stenotrophomonas maltophilia
Details: PBS pH 6.5; protein labelled with Red NHS dye
Text: MicroScale Thermophoresis on BtsD^Δ(SP-GGDEF) | BtsD^Δ(SP-GGDEF) directly bound with c-di-GMP and Sensor^BtsK

Nc1nc2c(ncn2[C@@H]2O[C@@H]3COP(=O)(O)O[C@H]4[C@@H](O)[C@H](n5cnc6c(=O)[nH]c(N)nc65)O[C@@H]4COP(=O)(O)O[C@H]3[C@H]2O)c(=O)[nH]1 [c-di-GMP]
Kd: 8.72 ± 4.12 µM
